Reference: patent US8440591B2, “Pesticidal composition comprising synthetic compound useful as nodulation agent of leguminous plants and a fungicide compound” (Bayer Cropscience AG, priority 2006, dated 2013)
Read-outs that look alike come from different tables or passages of the source.

Assays:
Format in all cases: cell-based
[1] = tested on: Gibberella zeae
[2] = tested on: Penicillium brevicaule; experiment: In vitro microtest of Penicillium brevicaule (optical density in PDB, microtitre plates); details: 7 days incubation
[3] = tested on: Rhizoctonia solani; experiment: In vitro microtest of Rhizoctonia solani
Description: V.10. In vitro Microtest of Rhizoctania solani
(§1) The microtest was performed in liquid medium with potato-dextrose broth (PDB) using microtitre plates.
(§2) The active compound is applied as the technical active substance dissolved in methanol.
A mycelium suspension of Rhizoctonia solani was used for inoculation. After 3 days (combinations A1+B3, A3+B2), 7 days (combination A2+B1), 4 days (combination A4+B2) or 5 days (combination A5+B1) of incubation by darkness under shaking (10 Hrz), the optical density in each cavity was evaluated with the aid of a microtitre plate reader.
0% means an efficacy which corresponds to that of the control, while an efficacy of 100% means that no fungal growth is observed.

[4] = tested on: Septoria tritici; experiment: In vitro microtest of Septoria tritici; details: 3 days incubation
Description: V.8. In vitro microtest of Septoria tritici
The microtest was performed in liquid medium with potato-dextrose broth (PDB) using microlitre plates.
(§3) The active compound is applied as the technical active substance dissolved in methanol. A spore suspension of Septoria tritici was used for inoculation. After 3 days of incubation by darkness under shaking (10 Hrz), the optical density in each cavity was evaluated with the aid of a microtitre plate reader. 0% means an efficacy which corresponds to that of the control, while an efficacy of 100% means that no fungal growth is observed.

[5] = tested on: Coriolus versicolor; experiment: In vitro microtest of Coriolus versicolor; details: 3 days incubation
Description: V.5. In vitro Microtest of Coriolus versicolor
as §1, §2
as §3, with “A” for “The active compound is applied as the technical active substance dissolved in methanol. A”, “mycelium” for “spore”, “Coriolus versicolor” for “Septoria tritici”

[6] = tested on: Phytophthora cryptogea; experiment: In vitro microtest of Phytophthora cryptogea; details: 3 ppm; 4 days incubation
Description: V.11. In vitro Microtest of Phytophthora cryptogea
as §1, §2
as §3, with “A” for “The active compound is applied as the technical active substance dissolved in methanol. A”, “mycelium” for “spore”, “Phytophthora cryptogea” for “Septoria tritici”, “4” for “3”

[7] = tested on: Botrytis cinerea; experiment: In vitro microtest of Botrytis cinerea
Description: V.9. In vitro microtest of Botrytis cinerea
as §1, §2
(§4) A spore suspension of Botrytis cinerea was used for inoculation. After 5 days (combination A2+B1), 4 days (combination A3+B3), or 7 days ( combination A5+B1) of incubation by darkness under shaking (10 Hrz), the optical density in each cavity was evaluated with the aid of a microtitre plate reader. 0% means an efficacy which corresponds to that of the control, while an efficacy of 100% means that no fungal growth is observed.

[8] = tested on: Alternaria mali; experiment: In vitro microtest of Alternaria mali; details: 3 ppm; 4 days incubation
Description: V.6. In vitro Microtest of Alternaria mali
as §1
as §3, with “Alternaria mali” for “Septoria tritici”, “4” for “3”

[9] = tested on: Pyricularia oryzae
[10] = tested on: Ustilago avenae; experiment: In vitro microtest of Ustilago avenae; details: 1 ppm; 5 days incubation
Description: V.12. In vitro Microtest of Ustilago avenae
as §1, §2
as §4, with “Ustilago avenae” for “Botrytis cinerea”, “days” for “days (combination A2+B1), 4 days (combination A3+B3), or 7 days ( combination A5+B1)”

SMILES: Cc1nn(C)c(F)c1C(=O)Nc1ccccc1C(C)CC(C)C (centres unmarked) [A1, N-[2-(1,3-dimethylbutyl)phenyl]-5-fluoro-1,3-dimethyl-1H-pyrazole-4-carboxamide]
- Efficacy in % ([1]; 1 ppm, 4 days incubation): 39%
- Efficacy in % ([2]; 0.3 ppm): 37%
- Efficacy in % ([3]; 0.003 ppm, 3 days incubation): 79%
- Efficacy in % ([4]; 0.01 ppm): 4%
- Efficacy in % ([5]; 0.01 ppm): 97%

SMILES: OC(Cc1ccccc1Cl)(Cn1nc[nH]c1=S)C1(Cl)CC1 (centres unmarked) [A2, Prothioconazole]
- Efficacy in % [6]: 19%
- Efficacy in % ([3]; 0.1 ppm, 7 days incubation): 50%
- Efficacy in % ([7]; 0.3 ppm, 5 days incubation): 40%
- Efficacy in % ([5]; 0.003 ppm): 48%

SMILES: CC(C)(C)C(O)(CCc1ccc(Cl)cc1)Cn1cncn1 (centres unmarked) [A3, Tebuconazole]
- Efficacy in % ([1]; 0.01 ppm, 3 days incubation): 9%
- Efficacy in % ([3]; 3 ppm, 3 days incubation): 47%
- Efficacy in % [8]: 97%
- Efficacy in % ([9]; 0.3 ppm, 5 days incubation): 96%
- Efficacy in % ([7]; 0.1 ppm, 4 days incubation): 33%

SMILES: CON=C(C(=O)OC)c1ccccc1CON=C(C)c1cccc(C(F)(F)F)c1 [A4, Trifloxystrobin]
- Efficacy in % ([1]; 0.1 ppm, 3 days incubation): 88%
- Efficacy in % ([1]; 1 ppm, 5 days incubation): 75%
- Efficacy in % ([3]; 1 ppm, 4 days incubation): 43%
- Efficacy in % [10]: 92%
- Efficacy in % ([9]; 0.1 ppm, 3 days incubation): 63%

SMILES: COCC(=O)N(c1c(C)cccc1C)C(C)C(=O)OC (centres unmarked) [A5, Metalaxyl]
- Efficacy in % ([3]; 0.0003 ppm, 5 days incubation): 80%
- Efficacy in % ([7]; 0.0003 ppm, 7 days incubation): 4%

SMILES: CCCCCC/C=C\CCCOc1cccc(C(=O)N[C@@H]2C(O[C@H]3C(O)C(NC(C)=O)C(O[C@@H]4C(CO)O[C@@H](O[C@H]5C(O)C(NC(C)=O)C(OC6C(CO[C@@H]7OC(C)C(O)[C@H](O)[C@H]7OC)OC(O)[C@@H](NC(C)=O)[C@H]6O)O[C@H]5CO)[C@@H](NC(C)=O)C4O)O[C@H]3CO)OC(CO)[C@@H](O)[C@@H]2O)c1 (some centres unmarked) [B1]
- Efficacy in % ([1]; 0.000001 ppm, 3 days incubation): 4%
- Efficacy in % ([1]; 0.00001 ppm, 3 days incubation): 12%
- Efficacy in % ([2]; 0.00003 ppm): 0%
- Efficacy in % ([3]; 0.00000003 ppm, 5 days incubation): 41%
- Efficacy in % ([3]; 0.00001 ppm, 7 days incubation): 9%
- Efficacy in % ([4]; 0.000001 ppm): 1%
- Efficacy in % ([9]; 0.00001 ppm, 3 days incubation): 2%
- Efficacy in % ([9]; 0.00003 ppm, 5 days incubation): 5%
- Efficacy in % ([7]; 0.00000003 ppm, 7 days incubation): 10%
- Efficacy in % ([7]; 0.00003 ppm, 5 days incubation): 18%
- Efficacy in % ([5]; 0.000001 ppm): 22%
